# Test results as given in article PMC6943423, “Structure-Activity Study of an All-D Antimicrobial Octapeptide D2D” (Molecules, 2019).
# Square brackets hold non-standard residues; d marks the D form. Peptide text beside a SMILES is read from it. d1Nal = N[C@H](Cc1cccc2ccccc12)C(=O)O; dNle = CCCC[C@@H](N)C(=O)O; dDap = NC[C@@H](N)C(=O)O
# Tested on: human red blood cells
# Experiment: Hemolytic activity
# Format: cell-based
# Details: red cells of human, 1 h, 150
# Protocol: The percentage of hemolysis at 150 μM was determined for all compounds as previously described. Briefly, two-fold serial dilutions (2.35 to 150 μM) of compounds in PBS were mixed with a 0.5% v/v suspension of fresh human red blood cells (RBC) in the same buffer. After 1 h incubation at 37 °C, plates were centrifuged and aliquots of the supernatants were transferred to clear ELISA plates. Absorbance at 414 nm was determined and normalised with respect to a negative (PBS, 0%) and positive (melittin, 100%) control.
row,Compound,%H (% Hemolysis at 150 µM) [%]
1,"CCCC[C@@H](NC(=O)[C@@H](CCCCN)NC(=O)[C@@H](Cc1cccc2ccccc12)NC(=O)[C@@H](Cc1cccc2ccccc12)NC(=O)[C@@H](Cc1ccccc1)NC(=O)[C@@H](Cc1cccc2ccccc12)NC(=O)[C@@H](CCCCN)NC(=O)[C@H](N)CCCCN)C(N)=O [Compound 9, kk(1-nal)f(1-nal)(1-nal)k(nle)-NH2] (H-[dK][dK][d1Nal][dF][d1Nal][d1Nal][dK][dNle]-NH2; N-terminus assumed)",20
2,"CCCC[C@@H](NC(=O)[C@@H](CCCCN)NC(=O)[C@@H](Cc1cccc2ccccc12)NC(=O)[C@@H](CN)NC(=O)[C@@H](Cc1ccccc1)NC(=O)[C@@H](Cc1cccc2ccccc12)NC(=O)[C@@H](CCCCN)NC(=O)[C@H](N)CCCCN)C(N)=O [Compound 10, kk(1-nal)f(dap)(1-nal)k(nle)-NH2] (H-[dK][dK][d1Nal][dF][dDap][d1Nal][dK][dNle]-NH2; N-terminus assumed)",28
3,"CCCC[C@@H](NC(=O)[C@@H](CCCCN)NC(=O)[C@@H](Cc1cccc2ccccc12)NC(=O)[C@@H](CCCC)NC(=O)[C@@H](Cc1ccccc1)NC(=O)[C@@H](Cc1cccc2ccccc12)NC(=O)[C@@H](CCCCN)NC(=O)[C@H](N)CCCCN)C(N)=O [Compound 11, kk(1-nal)f(nle)(1-nal)k(nle)-NH2] (H-[dK][dK][d1Nal][dF][dNle][d1Nal][dK][dNle]-NH2; N-terminus assumed)",33
4,"CCCC[C@@H](NC(=O)[C@@H](CCCCN)NC(=O)[C@@H](Cc1cccc2ccccc12)NC(=O)[C@@H](Cc1ccccc1)NC(=O)[C@@H](Cc1ccccc1)NC(=O)[C@@H](Cc1cccc2ccccc12)NC(=O)[C@@H](CCCCN)NC(=O)[C@H](N)CCCCN)C(N)=O [Compound 12, kk(1-nal)ff(1-nal)k(nle)-NH2] (H-[dK][dK][d1Nal][dF][dF][d1Nal][dK][dNle]-NH2; N-terminus assumed)",74
5,"CCCC[C@@H](NC(=O)[C@@H](CCCCN)NC(=O)[C@@H](Cc1cccc2ccccc12)NC(=O)[C@@H](CO)NC(=O)[C@@H](Cc1ccccc1)NC(=O)[C@@H](Cc1cccc2ccccc12)NC(=O)[C@@H](CCCCN)NC(=O)[C@H](N)CCCCN)C(N)=O [Compound 13, kk(1-nal)fs(1-nal)k(nle)-NH2] (H-[dK][dK][d1Nal][dF][dS][d1Nal][dK][dNle]-NH2; N-terminus assumed)",29
6,"CCCC[C@@H](NC(=O)[C@@H](CCCCN)NC(=O)[C@@H](Cc1cccc2ccccc12)NC(=O)[C@H](NC(=O)[C@@H](Cc1ccccc1)NC(=O)[C@@H](Cc1cccc2ccccc12)NC(=O)[C@@H](CCCCN)NC(=O)[C@H](N)CCCCN)[C@H](C)O)C(N)=O [Compound 14, kk(1-nal)ft(1-nal)k(nle)-NH2] (H-[dK][dK][d1Nal][dF][dT][d1Nal][dK][dNle]-NH2; N-terminus assumed)",28
7,"CCCC[C@@H](NC(=O)[C@@H](CCCCN)NC(=O)[C@@H](Cc1cccc2ccccc12)NC(=O)[C@@H](Cc1ccc(O)cc1)NC(=O)[C@@H](Cc1ccccc1)NC(=O)[C@@H](Cc1cccc2ccccc12)NC(=O)[C@@H](CCCCN)NC(=O)[C@H](N)CCCCN)C(N)=O [Compound 15, kk(1-nal)fy(1-nal)k(nle)-NH2] (H-[dK][dK][d1Nal][dF][dY][d1Nal][dK][dNle]-NH2; N-terminus assumed)",40
8,"CCCC[C@@H](NC(=O)[C@@H](CCCCN)NC(=O)[C@@H](Cc1cccc2ccccc12)NC(=O)[C@H](NC(=O)[C@@H](Cc1ccccc1)NC(=O)[C@@H](Cc1cccc2ccccc12)NC(=O)[C@@H](CCCCN)NC(=O)[C@H](N)CCCCN)C(C)C)C(N)=O [Compound 16, kk(1-nal)fv(1-nal)k(nle)-NH2] (H-[dK][dK][d1Nal][dF][dV][d1Nal][dK][dNle]-NH2; N-terminus assumed)",54
9,"CCCC[C@@H](NC(=O)[C@@H](Cc1cccc2ccccc12)NC(=O)[C@@H](Cc1cccc2ccccc12)NC(=O)[C@@H](CCCCN)NC(=O)[C@@H](Cc1ccccc1)NC(=O)[C@@H](Cc1cccc2ccccc12)NC(=O)[C@@H](CCCCN)NC(=O)[C@H](N)CCCCN)C(N)=O [Compound 17, kk(1-nal)fk(1-nal)(1-nal)(nle)-NH2] (H-[dK][dK][d1Nal][dF][dK][d1Nal][d1Nal][dNle]-NH2; N-terminus assumed)",89
10,"CCCC[C@@H](NC(=O)[C@@H](CCCC)NC(=O)[C@@H](Cc1cccc2ccccc12)NC(=O)[C@@H](CCCCN)NC(=O)[C@@H](Cc1ccccc1)NC(=O)[C@@H](Cc1cccc2ccccc12)NC(=O)[C@@H](CCCCN)NC(=O)[C@H](N)CCCCN)C(N)=O [Compound 19, kk(1-nal)fk(1-nal)(nle)(nle)-NH2] (H-[dK][dK][d1Nal][dF][dK][d1Nal][dNle][dNle]-NH2; N-terminus assumed)",56
11,"CCCC[C@@H](NC(=O)[C@@H](Cc1ccccc1)NC(=O)[C@@H](Cc1cccc2ccccc12)NC(=O)[C@@H](CCCCN)NC(=O)[C@@H](Cc1ccccc1)NC(=O)[C@@H](Cc1cccc2ccccc12)NC(=O)[C@@H](CCCCN)NC(=O)[C@H](N)CCCCN)C(N)=O [Compound 20, kk(1-nal)fk(1-nal)f(nle)-NH2] (H-[dK][dK][d1Nal][dF][dK][d1Nal][dF][dNle]-NH2; N-terminus assumed)",91
12,"CCCC[C@@H](NC(=O)[C@@H](CO)NC(=O)[C@@H](Cc1cccc2ccccc12)NC(=O)[C@@H](CCCCN)NC(=O)[C@@H](Cc1ccccc1)NC(=O)[C@@H](Cc1cccc2ccccc12)NC(=O)[C@@H](CCCCN)NC(=O)[C@H](N)CCCCN)C(N)=O [Compound 21, kk(1-nal)fk(1-nal)s(nle)-NH2] (H-[dK][dK][d1Nal][dF][dK][d1Nal][dS][dNle]-NH2; N-terminus assumed)",85
13,"CCCC[C@@H](NC(=O)[C@H](NC(=O)[C@@H](Cc1cccc2ccccc12)NC(=O)[C@@H](CCCCN)NC(=O)[C@@H](Cc1ccccc1)NC(=O)[C@@H](Cc1cccc2ccccc12)NC(=O)[C@@H](CCCCN)NC(=O)[C@H](N)CCCCN)[C@H](C)O)C(N)=O [Compound 22, kk(1-nal)fk(1-nal)t(nle)-NH2] (H-[dK][dK][d1Nal][dF][dK][d1Nal][dT][dNle]-NH2; N-terminus assumed)",66
14,"CCCC[C@@H](NC(=O)[C@@H](Cc1ccc(O)cc1)NC(=O)[C@@H](Cc1cccc2ccccc12)NC(=O)[C@@H](CCCCN)NC(=O)[C@@H](Cc1ccccc1)NC(=O)[C@@H](Cc1cccc2ccccc12)NC(=O)[C@@H](CCCCN)NC(=O)[C@H](N)CCCCN)C(N)=O [Compound 23, kk(1-nal)fk(1-nal)y(nle)-NH2] (H-[dK][dK][d1Nal][dF][dK][d1Nal][dY][dNle]-NH2; N-terminus assumed)",74
15,"CCCC[C@@H](NC(=O)[C@H](NC(=O)[C@@H](Cc1cccc2ccccc12)NC(=O)[C@@H](CCCCN)NC(=O)[C@@H](Cc1ccccc1)NC(=O)[C@@H](Cc1cccc2ccccc12)NC(=O)[C@@H](CCCCN)NC(=O)[C@H](N)CCCCN)C(C)C)C(N)=O [Compound 24, kk(1-nal)fk(1-nal)v(nle)-NH2] (H-[dK][dK][d1Nal][dF][dK][d1Nal][dV][dNle]-NH2; N-terminus assumed)",50
16,"CCCC[C@@H](NC(=O)[C@@H](Cc1cccc2ccccc12)NC(=O)[C@@H](CCCCN)NC(=O)[C@@H](CCCCN)NC(=O)[C@@H](Cc1ccccc1)NC(=O)[C@@H](Cc1cccc2ccccc12)NC(=O)[C@@H](CCCCN)NC(=O)[C@H](N)CCCCN)C(N)=O [Compound 25, kk(1-nal)fkk(1-nal)(nle)-NH2] (H-[dK][dK][d1Nal][dF][dK][dK][d1Nal][dNle]-NH2)",50
17,"CCCC[C@@H](NC(=O)[C@@H](Cc1cccc2ccccc12)NC(=O)[C@@H](CCCCN)NC(=O)[C@@H](Cc1ccccc1)NC(=O)[C@@H](Cc1cccc2ccccc12)NC(=O)[C@@H](CCCCN)NC(=O)[C@H](N)CCCCN)C(=O)N[C@H](CCCCN)C(N)=O [Compound 26, kk(1-nal)fk(1-nal)(nle)k-NH2] (H-[dK][dK][d1Nal][dF][dK][d1Nal][dNle][dK]-NH2; N-terminus assumed)",18
18,"CCCC[C@@H](NC(=O)[C@@H](CCCCN)NC(=O)[C@@H](Cc1cccc2ccccc12)NC(=O)[C@@H](CCCCN)NC(=O)[C@@H](Cc1ccccc1)NC(=O)[C@@H](Cc1cccc2ccccc12)NC(=O)[C@H](N)CCCCN)C(N)=O [Compound 27, k(1-nal)fk(1-nal)k(nle)-NH2] (H-[dK][d1Nal][dF][dK][d1Nal][dK][dNle]-NH2; N-terminus assumed)",49
19,"CCCC[C@@H](NC(=O)[C@@H](CCCCN)NC(=O)[C@@H](Cc1cccc2ccccc12)NC(=O)[C@@H](CCCCN)NC(=O)[C@@H](Cc1ccccc1)NC(=O)[C@H](N)Cc1cccc2ccccc12)C(N)=O [Compound 28, (1-nal)fk(1-nal)k(nle)-NH2] (H-[d1Nal][dF][dK][d1Nal][dK][dNle]-NH2; N-terminus assumed)",62
20,"NCCCC[C@@H](N)C(=O)N[C@H](CCCCN)C(=O)N[C@H](Cc1cccc2ccccc12)C(=O)N[C@H](Cc1ccccc1)C(=O)N[C@H](CCCCN)C(=O)N[C@H](Cc1cccc2ccccc12)C(=O)N[C@H](CCCCN)C(N)=O [Compound 30, kk(1-nal)fk(1-nal)k-NH2] (HELM PEPTIDE1{[dK].[dK].[O=C([C@@H](Cc1cccc2ccccc12)N[*:1])[*:2]].[dF].[dK].[O=C([C@@H](Cc1cccc2ccccc12)N[*:1])[*:2]].[dK].[am]}$$$$V2.0; N-terminus assumed)",11
21,"NCCCC[C@@H](N)C(=O)N[C@H](CCCCN)C(=O)N[C@H](Cc1cccc2ccccc12)C(=O)N[C@H](Cc1ccccc1)C(=O)N[C@H](CCCCN)C(=O)N[C@H](Cc1cccc2ccccc12)C(N)=O [Compound 31, kk(1-nal)fk(1-nal)-NH2] (HELM PEPTIDE1{[dK].[dK].[O=C([C@@H](Cc1cccc2ccccc12)N[*:1])[*:2]].[dF].[dK].[O=C([C@@H](Cc1cccc2ccccc12)N[*:1])[*:2]].[am]}$$$$V2.0; N-terminus assumed)",20
